# Source: patent US11214803B2, “Modulators of YAP1 expression” (Ionis Pharmaceuticals, Inc., priority 2019, dated 2022)
# Strand notation (5' to 3'): a small letter for the sugar, then the base; units joined by * are phosphorothioate-linked, units joined directly phosphodiester-linked; [ ] holds rarer units or linkages, { } end groups; capitals alone tell only the bases. e = 2'-O-(2-methoxyethyl) (MOE); k = constrained ethyl (cEt); [5mC] = 5-methylcytosine; d = 2'-deoxy (DNA); m = 2'-O-methyl
# Test system: Yap1 mRNA
# Assay: Antisense inhibition of human Yap1 in SNU-449 cells by modified oligonucleotides, single dose (Example 5, RTS36584)
# Type: cell-based
# Conditions: Table 39; SNU-449 cells, 10,000 cells per well, free uptake, 2,000 nM oligonucleotide, approx. 48 hours; RTS36584; normalized to RIBOGREEN; Yap1 mRNA relative to untreated control
# How it was run: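 Values are Yap1 mRNA as percent of untreated control cells, measured by quantitative real-time RT-PCR using RTS36584 and normalised to total RNA by RIBOGREEN. Cells were SNU-449, dosed by free uptake at 2,000 nM for approximately 48 hours.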
row,Substance,YAP1 (% UTC)
1,1198374 (kG*dA*dA*dA*dT*dT*dG*dT*d[5mC]*dT*d[5mC]*kA*eT*kG*e[5mC]*k[5mC]; antisense) [Compound 1198374],24 % UTC
2,1198386 (kT*dA*dT*dA*dT*dT*dA*dG*dA*dG*dT*kA*eT*kG*eT*kG; antisense) [Compound 1198386],77 % UTC
3,1198430 (kA*dT*dA*dT*dT*dG*d[5mC]*dA*dA*dT*d[5mC]*kT*eG*kT*e[5mC]*kT) [Compound 1198430],49 % UTC
4,1095398 (antisense k[5mC]*dT*dG*dA*dG*dG*dT*dA*dT*dA*dA*k[5mC]*eT*kG*eG*kG) [Compound 1095398],38 % UTC
5,1198380 (kA*dG*dA*dG*dT*dA*dT*dG*dT*dG*dG*k[5mC]*eA*kA*eT*kA; antisense) [Compound 1198380],18 % UTC
6,1198416 (kA*dG*dA*dT*dT*dT*dA*dG*dG*dA*dT*kG*e[5mC]*kA*eT*kG; antisense) [Compound 1198416],29 % UTC
7,1198376 (kT*dG*dG*dA*dA*dA*dT*dT*dG*dT*d[5mC]*kT*e[5mC]*kA*eT*kG; antisense) [Compound 1198376],36 % UTC

# Same assay, conditions: Table 40 (separate experiment); SNU-449 cells, 10,000 cells per well, free uptake, 2,000 nM oligonucleotide, approx. 48 hours; RTS36584; normalized to RIBOGREEN; Yap1 mRNA relative to untreated control
row,Substance,YAP1 (% UTC)
1,1198425 (kA*d[5mC]*dT*d[5mC]*dT*dT*dA*dT*dA*dT*dG*kG*eT*kT*eT*kT; antisense) [Compound 1198425],35 % UTC
2,1198752 (kT*eT*kT*dG*dG*dA*dA*dG*dA*dT*d[5mC]*dT*eG*eA*kA*kA; antisense) [Compound 1198752],111 % UTC
3,1198732 (kT*eA*kT*dA*dA*d[5mC]*dT*dG*dG*dG*d[5mC]*dA*eA*eA*kT*kT; antisense) [Compound 1198732],86 % UTC
4,1198755 (kT*eG*k[5mC]*dT*dT*dT*dG*dG*dA*dA*dG*dA*eT*e[5mC]*kT*kG) [Compound 1198755],32 % UTC

# Same assay, conditions: Table 42 (separate experiment); SNU-449 cells, 10,000 cells per well, free uptake, 2,000 nM modified oligonucleotide, approximately 48 hours; RTS36584; normalized to RIBOGREEN; Yap1 mRNA relative to untreated control cells
row,Substance,YAP1 (% UTC)
1,1198235 (kT*kG*d[5mC]*dT*dT*dT*dG*dG*dA*dA*dG*eA*eT*e[5mC]*kT*kG) [Compound 1198235],49 % UTC
2,1198649 (kG*kA*dG*dG*dT*dA*dT*dA*dA*d[5mC]*dT*dG*kG*eG*k[5mC]*eA) [Compound 1198649],27 % UTC
3,1198227 (kA*kG*d[5mC]*dA*d[5mC]*dT*dT*dT*dT*dA*d[5mC]*eA*eT*eT*kA*kG; antisense) [Compound 1198227],104 % UTC

# Same assay, conditions: Table 43 experiment; SNU-449 cells, 10,000 cells per well, free uptake, 2,000 nM, approximately 48 hours; RTS36584; Yap1 mRNA normalized to RIBOGREEN, relative to untreated control cells
row,Substance,YAP1 (% UTC)
1,1198266 (kT*kG*dT*dA*dT*dG*dT*d[5mC]*dA*dG*dA*eA*eG*eA*kG*kT; antisense) [Compound 1198266],25 % UTC
2,1198256 (kG*kA*d[5mC]*dA*dA*d[5mC]*dT*d[5mC]*dT*dT*dA*eT*eA*eT*kG*kG; antisense) [Compound 1198256],78 % UTC
3,1198457 (kA*kT*dT*dG*dT*d[5mC]*dT*d[5mC]*dA*dT*dG*e[5mC]*k[5mC]*eT*kT*eA) [Compound 1198457],18 % UTC
4,1198469 (antisense kA*kT*dT*dA*dG*dA*dG*dT*dA*dT*dG*eT*kG*eG*k[5mC]*eA) [Compound 1198469],23 % UTC
5,1198470 (antisense kT*kA*dT*dT*dA*dG*dA*dG*dT*dA*dT*eG*kT*eG*kG*e[5mC]) [Compound 1198470],17 % UTC

# Same assay, conditions: Table 44 experiment; SNU-449 cells, 10,000 cells per well, free uptake, 2,000 nM, approximately 48 hours; RTS36584; Yap1 mRNA normalized to RIBOGREEN, relative to untreated control cells
row,Substance,YAP1 (% UTC)
1,1198487 (antisense kT*kT*dA*dA*dG*d[5mC]*dA*d[5mC]*dT*dT*dT*eT*kA*e[5mC]*kA*eT) [Compound 1198487],62 % UTC
2,1198498 (antisense kT*kT*dA*dG*dG*dA*dT*dG*d[5mC]*dA*dT*eG*kG*eT*kT*eT) [Compound 1198498],39 % UTC
3,1198526 (kA*kA*dG*dT*dG*dT*dA*dT*dG*dT*d[5mC]*eA*kG*eA*kA*eG; antisense) [Compound 1198526],2 % UTC

# Same assay, conditions: Table 45; Yap1 mRNA as percent of untreated control, SNU-449 cells, single dose
row,Substance,YAP1 (% UTC)
1,1198944 (k[5mC]*kT*d[5mC]*dT*dT*dA*dT*dA*dT*dG*dG*kT*dT*kT*dT*kG; antisense) [Compound 1198944],34 % UTC
2,1198972 (kA*k[5mC]*dT*dA*dA*dG*dT*dA*dA*dG*dG*kT*dT*kT*d[5mC]*k[5mC]; antisense) [Compound 1198972],46 % UTC
3,1198925 (k[5mC]*kT*dT*dT*dG*dG*dA*dA*dG*dA*dT*k[5mC]*dT*kG*dA*kA; antisense) [Compound 1198925],52 % UTC
4,1198918 (kG*k[5mC]*dA*d[5mC]*dT*dT*dT*dT*dA*d[5mC]*dA*kT*dT*kA*dG*kG) [Compound 1198918],27 % UTC
5,1198920 (kA*kA*dG*d[5mC]*dA*d[5mC]*dT*dT*dT*dT*dA*k[5mC]*dA*kT*dT*kA; antisense) [Compound 1198920],54 % UTC

# Same assay, conditions: Table 46; Yap1 mRNA as percent of untreated control, SNU-449 cells, single dose
row,Substance,YAP1 (% UT)
1,1198826 (kA*kA*d[5mC]*dA*d[5mC]*dT*dG*dA*dG*dG*dT*kA*eT*kA*eA*k[5mC]; antisense) [Compound 1198826],64 % UT
2,1198834 (kA*kA*dG*d[5mC]*dA*d[5mC]*dT*dT*dT*dT*dA*k[5mC]*eA*kT*eT*kA; antisense) [Compound 1198834],54 % UT

# Same assay, conditions: Table 48; Yap1 mRNA level relative to untreated control; modified oligonucleotides targeting SEQ ID NO.: 1 and 2
row,Substance,YAP1 (% UT)
1,1198345 (kA*kA*kT*dA*dT*dT*dG*d[5mC]*dA*dA*dT*d[5mC]*kT*eG*kT*e[5mC]; antisense) [Compound 1198345],75 % UT
2,1197213 (antisense kT*kG*kT*dA*dT*dG*dT*d[5mC]*dA*dG*dA*dA*dG*kA*kG*kT) [Compound 1197213],5 % UT
3,1198329 (kG*kA*kT*dT*dT*dA*dG*dG*dA*dT*dG*d[5mC]*kA*eT*kG*eG; antisense) [Compound 1198329],36 % UT

# Same assay, conditions: Table 49; Yap1 mRNA level relative to untreated control; modified oligonucleotides targeting SEQ ID NO.: 1 and 2
row,Substance,YAP1 (% UT)
1,1198363 (kA*kA*kG*dT*dA*dA*dG*dG*dT*dT*dT*d[5mC]*k[5mC]*e[5mC]*kA*eG; antisense) [Compound 1198363],55 % UT
2,1198354 (kA*kA*kG*dT*dG*dT*dA*dT*dG*dT*d[5mC]*dA*kG*eA*kA*eG; antisense) [Compound 1198354],6 % UT
3,1198553 (antisense kT*kA*kG*dA*dG*dT*dA*dT*dG*dT*dG*dG*k[5mC]*kA*kA*eT) [Compound 1198553],13 % UT
4,1198574 (antisense kG*kG*kA*dA*dG*dA*dT*d[5mC]*dT*dG*dA*dA*kA*k[5mC]*kT*e[5mC]) [Compound 1198574],37 % UT

# Same assay, conditions: Table 50; Yap1 mRNA remaining as percent of untreated control (UT), SNU-449 cells, single dose
row,Substance,YAP1 (% UT)
1,1197229 (antisense kG*kG*kA*dA*mA*dT*dT*dG*dT*d[5mC]*dT*d[5mC]*dA*kT*kG*k[5mC]) [Compound 1197229],21 % UT
2,1198612 (antisense kA*kA*kG*dT*dG*dT*dA*dT*dG*dT*d[5mC]*dA*kG*kA*kA*eG) [Compound 1198612],5 % UT
3,1197280 (kT*kG*kT*d[5mC]*mU*d[5mC]*dA*dT*dG*d[5mC]*d[5mC]*dT*dT*kA*kT*kA; antisense) [Compound 1197280],53 % UT
4,1198618 (antisense kA*kA*k[5mC]*dT*dT*dT*dA*dA*dA*dG*dT*dG*kT*kA*kT*eG) [Compound 1198618],74 % UT

# Same assay, conditions: Table 51; Yap1 mRNA remaining as percent of untreated control (UT), SNU-449 cells, single dose
row,Substance,YAP1 (% UT)
1,1197240 (antisense k[5mC]*kT*kG*dA*mG*dG*dT*dA*dT*dA*dA*d[5mC]*dT*kG*kG*kG) [Compound 1197240],58 % UT
2,1197269 (kT*kA*kA*dA*mG*dT*dG*dT*dA*dT*dG*dT*d[5mC]*kA*kG*kA) [Compound 1197269],3 % UT
3,1200797 (kA*kT*kT*dA*dG*mA*dG*dT*dA*dT*dG*dT*dG*kG*k[5mC]*kA; antisense) [Compound 1200797],11 % UT
4,1200793 (kA*kG*kT*dA*dT*mG*dT*dG*dG*d[5mC]*dA*dA*dT*kA*kA*kT; antisense) [Compound 1200793],31 % UT
5,1200799 (kA*kT*kA*dT*dT*mA*dG*dA*dG*dT*dA*dT*dG*kT*kG*kG; antisense) [Compound 1200799],27 % UT

# Same assay, conditions: Table 52; Yap1 mRNA, modified oligonucleotides targeting SEQ ID NO: 1 and 2
row,Substance,YAP1 (% UT)
1,1200851 (kG*kT*kA*dA*dT*mA*dT*dT*dG*d[5mC]*dA*dA*dT*k[5mC]*kT*kG; antisense) [Compound 1200851],25 % UT
2,1200834 (kA*kG*kA*dT*dT*mU*dA*dG*dG*dA*dT*dG*d[5mC]*kA*kT*kG; antisense) [Compound 1200834],37 % UT
3,1200827 (kA*kG*kT*dG*d[5mC]*mU*dT*dT*dG*dG*dA*dA*dG*kA*kT*k[5mC]) [Compound 1200827],67 % UT
4,1200821 (kT*kT*kG*dG*dA*mA*dG*dA*dT*d[5mC]*dT*dG*dA*kA*kA*k[5mC]; antisense) [Compound 1200821],59 % UT

# Same assay, conditions: Yap1 mRNA, percent of untreated control; modified oligonucleotides targeting SEQ ID NO: 1 and 2; Table 47
row,Substance,YAP1 (% UT)
1,1197222 (antisense kA*kA*kG*dT*dA*dA*dG*dG*dT*dT*dT*d[5mC]*d[5mC]*k[5mC]*kA*kG) [Compound 1197222],40 % UT
